Reference: ChEMBL document CHEMBL5463729, “Data for DCP probe BAY 1753011” (2023)

Legend:
Conditions in all cases: Compound concentration 10.0 uM
[1] = target: Cyclin-dependent kinase-like 1 (Homo sapiens) (UniProt Q00532); assay: Inhibition of CDKL1(h) at 10.0 µM in the Eurofins Kinase panel
[2] = target: Serine/threonine-protein kinase 38 (Homo sapiens) (UniProt Q15208); assay: Inhibition of NDR1(h) at 10.0 µM in the Eurofins Kinase panel
[3] = target: T1, Alpha-2C adrenergic receptor (Homo sapiens) (UniProt P18825)
T1 sequence (whole entry): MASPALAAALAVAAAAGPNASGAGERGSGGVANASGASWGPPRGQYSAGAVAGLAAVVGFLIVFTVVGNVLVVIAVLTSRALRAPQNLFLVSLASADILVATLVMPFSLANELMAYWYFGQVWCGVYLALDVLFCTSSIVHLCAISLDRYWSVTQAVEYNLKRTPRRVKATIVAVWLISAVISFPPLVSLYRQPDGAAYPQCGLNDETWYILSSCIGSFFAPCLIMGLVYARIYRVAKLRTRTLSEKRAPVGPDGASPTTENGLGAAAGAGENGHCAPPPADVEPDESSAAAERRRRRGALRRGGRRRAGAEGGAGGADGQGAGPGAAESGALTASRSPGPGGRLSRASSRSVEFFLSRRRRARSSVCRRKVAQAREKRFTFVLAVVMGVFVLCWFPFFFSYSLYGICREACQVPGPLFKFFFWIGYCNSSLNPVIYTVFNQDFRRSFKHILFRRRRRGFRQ

[4] = target: Serine/threonine-protein kinase 32B (Homo sapiens) (UniProt Q9NY57); assay: Inhibition of STK32B(h) at 10.0 µM in the Eurofins Kinase panel
[5] = target: G protein-coupled receptor kinase 6 (Homo sapiens) (UniProt P43250); assay: Inhibition of GRK6(h) at 10.0 µM in the Eurofins Kinase panel
[6] = target: T2, D(4) dopamine receptor (Homo sapiens) (UniProt P21917)
T2 sequence (whole entry): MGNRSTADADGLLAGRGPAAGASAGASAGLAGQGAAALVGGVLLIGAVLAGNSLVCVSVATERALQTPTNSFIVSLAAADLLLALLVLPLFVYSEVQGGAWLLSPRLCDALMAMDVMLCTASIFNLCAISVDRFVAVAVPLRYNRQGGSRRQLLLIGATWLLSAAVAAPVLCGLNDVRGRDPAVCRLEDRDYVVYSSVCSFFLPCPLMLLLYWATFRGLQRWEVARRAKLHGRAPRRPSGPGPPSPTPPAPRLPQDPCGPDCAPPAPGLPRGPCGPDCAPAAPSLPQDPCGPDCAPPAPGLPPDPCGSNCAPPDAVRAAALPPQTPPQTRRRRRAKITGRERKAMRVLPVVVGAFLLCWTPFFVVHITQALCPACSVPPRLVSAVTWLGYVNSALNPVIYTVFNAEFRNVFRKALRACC

[7] = target: Endothelin receptor type B (Homo sapiens) (UniProt P24530)
[8] = target: Serine/threonine-protein kinase Nek11 (Homo sapiens) (UniProt Q8NG66); assay: Inhibition of NEK11(h) at 10.0 µM in the Eurofins Kinase panel
[9] = target: T3, Alpha-2A adrenergic receptor (Homo sapiens) (UniProt P08913)
T3 sequence (whole entry): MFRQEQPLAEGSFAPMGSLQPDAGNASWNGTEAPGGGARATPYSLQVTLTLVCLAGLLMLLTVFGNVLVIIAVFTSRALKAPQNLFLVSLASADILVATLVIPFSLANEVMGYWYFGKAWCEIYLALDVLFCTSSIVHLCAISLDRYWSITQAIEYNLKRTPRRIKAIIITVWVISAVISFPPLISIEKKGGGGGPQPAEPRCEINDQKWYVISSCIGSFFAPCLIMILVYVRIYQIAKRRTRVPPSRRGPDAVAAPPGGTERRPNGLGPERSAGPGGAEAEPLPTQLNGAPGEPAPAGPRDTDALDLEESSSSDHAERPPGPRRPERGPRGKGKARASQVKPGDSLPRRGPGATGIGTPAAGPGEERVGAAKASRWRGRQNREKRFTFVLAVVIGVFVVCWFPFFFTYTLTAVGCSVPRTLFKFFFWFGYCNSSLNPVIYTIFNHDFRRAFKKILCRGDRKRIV

[10] = target: CDK18/Cyclin Y (Homo sapiens) (UniProt Q07002+Q8ND76); assay: Inhibition of CDK18/cyclinY(h) at 10.0 µM in the Eurofins Kinase panel; format: protein-complex assay
[11] = target: Protein kinase C iota type (Homo sapiens) (UniProt P41743); assay: Inhibition of PKCiota(h) at 10.0 µM in the Eurofins Kinase panel
[12] = target: G protein-coupled receptor kinase 5 (Homo sapiens) (UniProt P34947); assay: Inhibition of GRK5(h) at 10.0 µM in the Eurofins Kinase panel
[13] = target: Tyrosine-protein kinase Yes (Homo sapiens) (UniProt P07947); assay: Inhibition of Yes(h) at 10.0 µM in the Eurofins Kinase panel
[14] = target: Receptor tyrosine-protein kinase erbB-2 (Homo sapiens) (UniProt P04626); assay: Inhibition of ErbB2(h) at 10.0 µM in the Eurofins Kinase panel
[15] = target: TGF-beta receptor type-1 (Homo sapiens) (UniProt P36897); assay: Inhibition of TGFBR1(h) at 10.0 µM in the Eurofins Kinase panel
[16] = target: Serine/threonine-protein kinase 3 (Homo sapiens) (UniProt Q13188); assay: Inhibition of MST2(h) at 10.0 µM in the Eurofins Kinase panel
[17] = target: Serine/threonine-protein kinase TAO3 (Homo sapiens) (UniProt Q9H2K8); assay: Inhibition of TAO3(h) at 10.0 µM in the Eurofins Kinase panel
[18] = target: Adenosine receptor A1 (Homo sapiens) (UniProt P30542)
[19] = target: LIM domain kinase 1 (Homo sapiens) (UniProt P53667); assay: Inhibition of LIMK1(h) at 10.0 µM in the Eurofins Kinase panel
[20] = target: MAP kinase-activated protein kinase 2 (Homo sapiens) (UniProt P49137); assay: Inhibition of MAPK2(h) at 10.0 µM in the Eurofins Kinase panel
MAP kinase-activated protein kinase 2 (Homo sapiens), sequence (P49137 whole entry, looked up): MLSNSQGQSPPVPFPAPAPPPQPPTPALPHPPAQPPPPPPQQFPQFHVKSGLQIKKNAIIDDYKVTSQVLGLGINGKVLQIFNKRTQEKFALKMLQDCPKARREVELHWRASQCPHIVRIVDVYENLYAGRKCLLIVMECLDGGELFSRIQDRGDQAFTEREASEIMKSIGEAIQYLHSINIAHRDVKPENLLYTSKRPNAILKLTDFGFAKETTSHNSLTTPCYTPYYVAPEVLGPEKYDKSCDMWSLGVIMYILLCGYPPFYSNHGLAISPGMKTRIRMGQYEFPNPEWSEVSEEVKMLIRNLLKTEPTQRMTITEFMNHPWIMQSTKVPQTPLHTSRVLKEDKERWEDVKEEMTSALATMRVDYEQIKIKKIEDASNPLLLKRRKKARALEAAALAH

TGF-beta receptor type-1 (Homo sapiens), sequence (P36897 whole entry): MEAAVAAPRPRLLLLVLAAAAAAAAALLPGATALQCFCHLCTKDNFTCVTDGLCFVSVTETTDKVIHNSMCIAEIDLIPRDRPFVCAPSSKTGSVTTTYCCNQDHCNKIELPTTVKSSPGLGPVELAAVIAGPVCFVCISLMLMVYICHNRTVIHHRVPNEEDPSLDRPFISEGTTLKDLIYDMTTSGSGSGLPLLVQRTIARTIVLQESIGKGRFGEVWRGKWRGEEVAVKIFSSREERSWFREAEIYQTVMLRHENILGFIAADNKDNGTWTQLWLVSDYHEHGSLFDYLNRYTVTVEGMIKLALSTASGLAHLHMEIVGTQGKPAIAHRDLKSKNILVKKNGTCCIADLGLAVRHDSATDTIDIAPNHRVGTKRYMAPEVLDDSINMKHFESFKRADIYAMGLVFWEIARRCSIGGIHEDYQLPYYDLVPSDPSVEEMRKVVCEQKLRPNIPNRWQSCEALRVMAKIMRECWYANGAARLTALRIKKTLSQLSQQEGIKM
Tyrosine-protein kinase Yes (Homo sapiens), sequence (P07947 2-543 limits assumed): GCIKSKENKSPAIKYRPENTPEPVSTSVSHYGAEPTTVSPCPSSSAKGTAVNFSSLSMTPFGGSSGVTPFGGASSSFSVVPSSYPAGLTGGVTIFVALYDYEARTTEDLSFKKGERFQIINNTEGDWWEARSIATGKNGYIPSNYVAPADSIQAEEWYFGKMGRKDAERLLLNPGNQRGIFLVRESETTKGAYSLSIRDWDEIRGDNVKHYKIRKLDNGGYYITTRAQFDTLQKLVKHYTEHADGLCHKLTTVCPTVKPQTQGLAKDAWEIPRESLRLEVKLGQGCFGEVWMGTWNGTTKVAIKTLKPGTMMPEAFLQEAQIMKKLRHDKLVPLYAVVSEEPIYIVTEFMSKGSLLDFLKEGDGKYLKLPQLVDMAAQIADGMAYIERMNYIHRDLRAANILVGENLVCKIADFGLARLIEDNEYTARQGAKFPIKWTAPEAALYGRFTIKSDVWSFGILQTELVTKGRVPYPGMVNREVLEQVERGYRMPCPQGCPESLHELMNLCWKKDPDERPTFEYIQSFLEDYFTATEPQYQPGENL
Receptor tyrosine-protein kinase erbB-2 (Homo sapiens), sequence (P04626 whole entry): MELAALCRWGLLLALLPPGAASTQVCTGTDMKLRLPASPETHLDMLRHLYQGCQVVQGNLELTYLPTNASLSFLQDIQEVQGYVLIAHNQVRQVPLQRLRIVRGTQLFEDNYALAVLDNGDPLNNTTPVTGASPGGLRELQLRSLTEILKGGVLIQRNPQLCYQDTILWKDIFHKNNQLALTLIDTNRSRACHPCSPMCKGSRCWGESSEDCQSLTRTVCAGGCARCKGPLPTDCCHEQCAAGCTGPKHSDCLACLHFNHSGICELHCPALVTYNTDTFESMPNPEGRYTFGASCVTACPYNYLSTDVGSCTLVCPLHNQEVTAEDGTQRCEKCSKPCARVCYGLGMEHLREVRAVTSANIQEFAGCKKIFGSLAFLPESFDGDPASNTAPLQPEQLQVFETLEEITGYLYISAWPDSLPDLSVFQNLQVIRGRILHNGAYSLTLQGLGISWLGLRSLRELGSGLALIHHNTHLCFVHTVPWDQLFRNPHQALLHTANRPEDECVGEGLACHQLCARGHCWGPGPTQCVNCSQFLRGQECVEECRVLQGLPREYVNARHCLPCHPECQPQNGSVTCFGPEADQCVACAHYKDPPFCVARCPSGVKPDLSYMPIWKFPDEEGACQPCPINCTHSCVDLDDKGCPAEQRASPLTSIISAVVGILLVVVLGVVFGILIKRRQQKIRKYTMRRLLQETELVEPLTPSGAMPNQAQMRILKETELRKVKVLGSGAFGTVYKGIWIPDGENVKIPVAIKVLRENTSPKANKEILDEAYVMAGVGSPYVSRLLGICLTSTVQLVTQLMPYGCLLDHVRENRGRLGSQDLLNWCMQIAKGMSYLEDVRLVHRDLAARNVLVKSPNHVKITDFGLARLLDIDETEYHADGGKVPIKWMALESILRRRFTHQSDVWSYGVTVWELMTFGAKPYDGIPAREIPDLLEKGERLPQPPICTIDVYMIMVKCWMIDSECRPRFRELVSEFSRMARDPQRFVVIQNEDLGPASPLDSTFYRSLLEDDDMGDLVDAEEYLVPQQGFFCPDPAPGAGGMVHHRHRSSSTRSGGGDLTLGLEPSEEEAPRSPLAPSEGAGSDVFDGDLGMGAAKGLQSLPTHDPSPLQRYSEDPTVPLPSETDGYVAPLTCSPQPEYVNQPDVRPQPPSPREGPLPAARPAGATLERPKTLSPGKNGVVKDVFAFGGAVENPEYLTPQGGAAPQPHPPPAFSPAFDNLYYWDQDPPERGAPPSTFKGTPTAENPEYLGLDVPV
Endothelin receptor type B (Homo sapiens), sequence (P24530 whole entry): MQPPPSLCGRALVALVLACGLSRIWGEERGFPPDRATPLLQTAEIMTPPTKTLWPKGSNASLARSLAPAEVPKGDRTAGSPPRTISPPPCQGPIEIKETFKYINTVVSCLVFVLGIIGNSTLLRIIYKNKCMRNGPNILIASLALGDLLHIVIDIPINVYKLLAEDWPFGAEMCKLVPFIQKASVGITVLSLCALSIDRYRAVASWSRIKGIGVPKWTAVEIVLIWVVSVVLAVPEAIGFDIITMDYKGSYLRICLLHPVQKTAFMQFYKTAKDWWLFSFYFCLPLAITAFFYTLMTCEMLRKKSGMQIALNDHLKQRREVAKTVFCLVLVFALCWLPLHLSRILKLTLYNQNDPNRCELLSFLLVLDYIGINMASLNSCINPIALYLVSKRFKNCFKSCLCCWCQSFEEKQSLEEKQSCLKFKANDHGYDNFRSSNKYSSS
G protein-coupled receptor kinase 6 (Homo sapiens), sequence (P43250 whole entry, looked up): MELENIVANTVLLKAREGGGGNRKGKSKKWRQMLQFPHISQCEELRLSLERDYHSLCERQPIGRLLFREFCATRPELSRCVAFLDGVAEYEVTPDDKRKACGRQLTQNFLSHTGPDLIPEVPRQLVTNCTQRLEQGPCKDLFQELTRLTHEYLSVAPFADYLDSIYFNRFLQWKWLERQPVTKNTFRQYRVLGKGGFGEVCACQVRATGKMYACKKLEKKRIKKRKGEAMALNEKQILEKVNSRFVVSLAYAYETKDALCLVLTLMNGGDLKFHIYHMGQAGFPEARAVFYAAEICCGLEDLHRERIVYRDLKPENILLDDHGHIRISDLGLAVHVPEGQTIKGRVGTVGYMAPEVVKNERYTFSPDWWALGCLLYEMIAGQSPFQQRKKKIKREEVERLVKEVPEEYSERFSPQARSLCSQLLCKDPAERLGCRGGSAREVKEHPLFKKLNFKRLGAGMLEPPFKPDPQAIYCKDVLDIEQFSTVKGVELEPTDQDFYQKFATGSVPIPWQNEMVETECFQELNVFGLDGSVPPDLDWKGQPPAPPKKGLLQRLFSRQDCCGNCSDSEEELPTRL
Serine/threonine-protein kinase Nek11 (Homo sapiens), sequence (Q8NG66 whole entry): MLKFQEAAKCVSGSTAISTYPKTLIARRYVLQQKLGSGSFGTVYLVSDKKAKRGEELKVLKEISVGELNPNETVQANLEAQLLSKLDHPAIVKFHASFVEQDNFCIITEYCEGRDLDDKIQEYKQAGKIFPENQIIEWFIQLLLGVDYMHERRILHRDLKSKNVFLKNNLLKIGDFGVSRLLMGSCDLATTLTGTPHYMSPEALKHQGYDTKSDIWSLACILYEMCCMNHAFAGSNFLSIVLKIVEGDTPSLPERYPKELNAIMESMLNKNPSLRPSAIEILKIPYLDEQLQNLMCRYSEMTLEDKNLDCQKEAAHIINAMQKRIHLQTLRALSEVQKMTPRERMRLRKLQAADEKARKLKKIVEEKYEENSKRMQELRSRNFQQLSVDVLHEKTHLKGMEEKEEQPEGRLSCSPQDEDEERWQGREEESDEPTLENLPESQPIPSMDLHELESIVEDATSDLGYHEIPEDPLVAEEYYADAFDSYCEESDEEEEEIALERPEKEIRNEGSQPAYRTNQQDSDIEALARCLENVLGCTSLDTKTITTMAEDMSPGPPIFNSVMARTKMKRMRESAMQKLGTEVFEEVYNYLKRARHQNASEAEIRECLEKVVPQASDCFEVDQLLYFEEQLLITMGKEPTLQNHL
Serine/threonine-protein kinase 32B (Homo sapiens), sequence (Q9NY57 whole entry): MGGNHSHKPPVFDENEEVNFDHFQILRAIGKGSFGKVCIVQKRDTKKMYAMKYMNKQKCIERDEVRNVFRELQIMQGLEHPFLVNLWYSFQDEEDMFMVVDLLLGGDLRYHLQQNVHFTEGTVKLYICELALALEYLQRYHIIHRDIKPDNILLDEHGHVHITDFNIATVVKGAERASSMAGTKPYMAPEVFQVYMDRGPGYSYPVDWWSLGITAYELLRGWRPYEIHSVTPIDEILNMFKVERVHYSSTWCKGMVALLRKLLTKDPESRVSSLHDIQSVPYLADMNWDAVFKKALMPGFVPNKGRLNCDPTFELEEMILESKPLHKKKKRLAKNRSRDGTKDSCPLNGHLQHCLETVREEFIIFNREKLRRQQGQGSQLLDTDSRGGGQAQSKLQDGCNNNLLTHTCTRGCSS

SMILES	inhibition [1]	inhibition [2]	inhibition [3]	inhibition [4]	inhibition [5]	inhibition [6]	inhibition [7]	inhibition [8]	inhibition [9]	inhibition [10]	inhibition [11]	inhibition [12]	inhibition [13]	inhibition [14]	inhibition [15]	inhibition [16]	inhibition [17]	inhibition [18]	inhibition [19]	inhibition [20]
O=c1n(Cc2cncn2-c2cccc(Cl)c2)nc(-c2ccc(Cl)cc2)n1C[C@H](O)C(F)(F)F	6.34%	-2.95%	-9.85%	-7.15%	-0.21%	-4.7%	1%	15.8%	-3.35%	-1.75%	0.21%	-0.58%	-2.72%	-4.27%	3.39%	-1.52%	3.07%	8%	0.42%	11.3%
C[C@H](O)c1nc(Cn2nc(-c3ccc(Cl)cc3)n(C[C@H](O)C(F)(F)F)c2=O)nn1-c1cccc(Cl)c1 [PECAVAPTAN]	1.83%	-4.67%	-2.74%	-0.99%	1.15%	19.5%	5%	16.2%	8.06%	2.34%	-3.93%	2.6%	-6.93%	-6.43%	5.09%	-2.77%	5.55%	26%	0.57%	11.1%
